Activity calls are given as the source filed them. The calls are words filed in the database; no cut-off is given here.
Columns and labels:
[1] = Cytotoxicity against human neutrophils at 200 uM after 1 hr by trypan blue exclusion assay; assay type: cell-based; details: neutrophil
Neutrophil [2] = experiment: Inhibition of phorbol myristate acetate-induced human neutrophils oxidative burst assessed as reduction in luminol oxidation up to 200 uM preincubated for 5 mins followed by PMA addition measured after 15 mins by chemiluminescence assay; assay type: functional
Neutrophil [3] = experiment: Inhibition of phorbol myristate acetate-induced superoxide radical generation in human neutrophils at 100 uM preincubated for 5 mins followed by PMA addition by lucigenin chemiluminescence assay; assay type: functional
Neutrophil [4] = experiment: Inhibition of phorbol myristate acetate-induced human neutrophils oxidative burst assessed as reduction in luminol oxidation preincubated for 5 mins followed by PMA addition measured after 15 mins by chemiluminescence assay; assay type: functional, cell-based
C2BBe1 [5] = experiment: Cytotoxicity against human C2BBe1 cells assessed as reduction in cell proliferation after 24 hrs by sulforhodamine B assay; assay type: functional, cell-based; details: C2BBe1, 24 h
C2BBe1 [6] = experiment: Cytotoxicity against human C2BBe1 cells assessed as reduction in cell proliferation after 48 hrs by sulforhodamine B assay; assay type: functional, cell-based; details: C2BBe1, 48 h
C2BBe1 [7] = experiment: Cytotoxicity against human C2BBe1 cells assessed as reduction in cell proliferation after 72 hrs by sulforhodamine B assay; assay type: functional, cell-based; details: C2BBe1, 72 h
C2BBe1 [8] = experiment: Cytotoxicity against human C2BBe1 cells assessed as reduction in cell proliferation after 96 hrs by sulforhodamine B assay; assay type: functional, cell-based; details: C2BBe1, 96 h
WiDr [9] = experiment: Cytotoxicity against human WiDr cells assessed as reduction in cell proliferation after 24 hrs by sulforhodamine B assay; assay type: functional, cell-based
WiDr [10] = experiment: Cytotoxicity against human WiDr cells assessed as reduction in cell proliferation after 48 hrs by sulforhodamine B assay; assay type: functional, cell-based
WiDr [11] = experiment: Cytotoxicity against human WiDr cells assessed as reduction in cell proliferation after 72 hrs by sulforhodamine B assay; assay type: functional, cell-based
WiDr [12] = experiment: Cytotoxicity against human WiDr cells assessed as reduction in cell proliferation after 96 hrs by sulforhodamine B assay; assay type: functional, cell-based
C2BBe1 [13] = experiment: Cytotoxicity against human C2BBe1 cells assessed as reduction in cell proliferation up to 200 uM by sulforhodamine B assay; assay type: functional, cell-based; details: TDE = time-dependent effect
C2BBe1 [14] = experiment: Cell cycle arrest in human C2BBe1 cells assessed as accumulation at G2/M phase at 50 uM after 48 hrs by propidium iodide/RNase staining based flow cytometry relative to control; assay type: functional
WiDr [15] = experiment: Cell cycle arrest in human WiDr cells assessed as accumulation at S phase at 50 uM after 48 hrs by propidium iodide/RNase staining based flow cytometry relative to control; assay type: functional
WiDr [16] = experiment: Cell cycle arrest in human WiDr cells assessed as accumulation at pre-G1 phase at 50 uM after 48 hrs by propidium iodide/RNase staining based flow cytometry; assay type: functional
WiDr [17] = experiment: Cytotoxicity against human WiDr cells assessed as reduction in cell viability at 35 uM after 48 hrs by annexin V/propidium iodide dual staining based flow cytometry relative to control; assay type: functional
WiDr [18] = experiment: Cytotoxicity against human WiDr cells assessed as reduction in cell viability at 50 uM after 48 hrs by annexin V/propidium iodide dual staining based flow cytometry relative to control; assay type: functional
C2BBe1 [19] = experiment: Cytotoxicity against human C2BBe1 cells assessed as reduction in cell viability at 22 uM after 48 hrs by annexin V/propidium iodide dual staining based flow cytometry relative to control; assay type: functional
C2BBe1 [20] = experiment: Cytotoxicity against human C2BBe1 cells assessed as reduction in cell viability at 50 uM after 48 hrs by annexin V/propidium iodide dual staining based flow cytometry relative to control; assay type: functional
C2BBe1 [21] = experiment: Induction of apoptosis in human C2BBe1 cells assessed as early apoptotic cells at 50 uM after 48 hrs by annexin V/propidium iodide dual staining based flow cytometry; assay type: functional, cell-based
WiDr [22] = experiment: Induction of apoptosis in human WiDr cells assessed as decrease in mitochondrial membrane potential at 50 uM after 48 hrs by JC-1 staining based flow cytometry relative to control; assay type: functional
WiDr [23] = experiment: Induction of superoxide anion radical production in human WiDr cells after 48 hrs by dihydroethidium probe based flow cytometry; assay type: functional, cell-based
C2BBe1 [24] = experiment: Induction of superoxide anion radical production in human C2BBe1 cells after 48 hrs by dihydroethidium probe based flow cytometry; assay type: functional, cell-based
WiDr [25] = experiment: Induction of superoxide anion radical production in human WiDr cells at 50 uM after 48 hrs by dihydroethidium probe based flow cytometry relative to control; assay type: functional
WiDr [26] = experiment: Induction of hydrogen peroxide production in human WiDr cells at 35 to 50 uM after 48 hrs by DCFH2-DA probe based flow cytometry; assay type: functional, cell-based
C2BBe1 [27] = experiment: Induction of glutathione production in human C2BBe1 cells at 50 uM after 48 hrs by mercury orange dye based flow cytometry relative to control; assay type: functional
WiDr [28] = experiment: Induction of apoptosis in human WiDr cells assessed as early apoptotic cells at 35 to 50 uM after 48 hrs by annexin V/propidium iodide dual staining based flow cytometry; assay type: functional, cell-based

Row | SMILES | Activity [1] | IC50 (Neutrophil [4]) | IC50 (C2BBe1 [5]) | IC50 (C2BBe1 [6]) | IC50 (C2BBe1 [7]) | IC50 (C2BBe1 [8]) | IC50 (WiDr [9]) | IC50 (WiDr [10]) | IC50 (WiDr [11]) | IC50 (WiDr [12]) | Activity (C2BBe1 [13]) | further results
1 | O=C(O)/C=C/c1ccc(O)c(O)c1 [CAFFEIC ACID] | 98% | – | – | – | – | – | – | – | – | – | – | inhibition (INH) (Neutrophil [2]): 44%; inhibition at 100 µM (Neutrophil [3]): 84%
2 | CCCCCCNC(=O)/C=C/c1cc(O)c(O)c(O)c1 | 98% | 36 µM | 115 µM | 115 µM | 99.8 µM | 50.9 µM | 71.4 µM | 82.4 µM | 37.7 µM | 31.7 µM | tde | –
3 | COc1cc(/C=C/C(=O)O)ccc1O [FERULATE] | 98% | 200 µM | > 200 µM | > 200 µM | > 200 µM | > 200 µM | > 200 µM | > 200 µM | > 200 µM | > 200 µM | – | –
4 | CCCCCCNC(=O)/C=C/c1ccc(O)c(O)c1 [CAFFEOYLHEXYLAMIDE] | 98% | 6.6 µM | 37.3 µM | 22 µM | 23.4 µM | 22.6 µM | 56.1 µM | 34.6 µM | 35.5 µM | 30.8 µM | – | Activity (C2BBe1 [14]): 8.8%; Activity (WiDr [15]): 9.3%; Activity (WiDr [16]): Active; Activity (WiDr [17]): 32.8%; Activity (WiDr [18]): 43.9%; Activity (C2BBe1 [19]): 11.4%; Activity (C2BBe1 [20]): 14.7%; Activity (C2BBe1 [21]): Active; fold change (FC) (WiDr [22]): 1.27; Activity (WiDr [23]): Dose-dependent effect; Activity (C2BBe1 [24]): Dose-dependent effect; fold change (FC) (WiDr [25]): 2.63; Activity (WiDr [26]): Active; fold change (FC) (C2BBe1 [27]): 1.47; Activity (WiDr [28]): Active
5 | O=C(O)/C=C/c1cc(O)c(O)c(O)c1 | 98% | 19 µM | 131 µM | 87.9 µM | 58.9 µM | 39.1 µM | > 200 µM | > 200 µM | 114 µM | 136 µM | tde | –
6 | CCCCCCNC(=O)/C=C/c1ccc(O)c(OC)c1 [FERULOYLHEXYLAMIDE] | 98% | 14 µM | 132 µM | 123 µM | 89.5 µM | 60.6 µM | 84.9 µM | 91 µM | 77.4 µM | 83.3 µM | – | –

From ChEMBL document CHEMBL3813694, “Combined dual effect of modulation of human neutrophils' oxidative burst and inhibition of colon cancer cells proliferation by hydroxycinnamic acid derivatives” (Bioorg Med Chem, 2016)
